The results in this text go back to US20250296959A1, “B7-H3 TARGETING PEPTIDES AND CONSTRUCTS THEREOF” (Mariana Oncology Inc., priority 2024, published 2025).

Starred links: 1 amine or outer side, 2 acyl side, 3 side chain; linkers in the order of their positions; H or OH if unused. Positions of bridges follow the written chain, without caps; N, C: chain ends. Non-standard residues stand in square brackets, D forms with d. Residues, ends and D or L forms follow the SMILES beside them. *: point of attachment. X2 = O=C(O)CN1CCN(CC(=O)O)CCN(CC(=O)NCCOCCOCCOCCOCC(=O)*)CCN(CC(=O)O)CC1; Ala(piperidin-4-yl) = O=C([C@H](CC1CCN([*:3])CC1)N[*:1])[*:2]; DOTA = O=C(O)CN1CCN(CC(=O)O)CCN(CC(=O)*)CCN(CC(=O)O)CC1; Phe(4-COOH) = N[C@@H](Cc1ccc(C(=O)O)cc1)C(=O)O; Trp(5-F) = N[C@@H](Cc1c[nH]c2ccc(F)cc12)C(=O)O; Ala(4-THP) = N[C@@H](CC1CCOCC1)C(=O)O; Cha = N[C@@H](CC1CCCCC1)C(=O)O; Tle = CC(C)(C)[C@H](N)C(=O)O; hLeu = CC(C)CC[C@H](N)C(=O)O; NMeS = CN[C@@H](CO)C(=O)O; Nle = CCCC[C@H](N)C(=O)O; Sar = CNCC(=O)O

This test concerns the target T1, human 4lg B7-H3 (Homo sapiens, UniProt Q5ZPR3).
T1 sequence (Q5ZPR3 29-534): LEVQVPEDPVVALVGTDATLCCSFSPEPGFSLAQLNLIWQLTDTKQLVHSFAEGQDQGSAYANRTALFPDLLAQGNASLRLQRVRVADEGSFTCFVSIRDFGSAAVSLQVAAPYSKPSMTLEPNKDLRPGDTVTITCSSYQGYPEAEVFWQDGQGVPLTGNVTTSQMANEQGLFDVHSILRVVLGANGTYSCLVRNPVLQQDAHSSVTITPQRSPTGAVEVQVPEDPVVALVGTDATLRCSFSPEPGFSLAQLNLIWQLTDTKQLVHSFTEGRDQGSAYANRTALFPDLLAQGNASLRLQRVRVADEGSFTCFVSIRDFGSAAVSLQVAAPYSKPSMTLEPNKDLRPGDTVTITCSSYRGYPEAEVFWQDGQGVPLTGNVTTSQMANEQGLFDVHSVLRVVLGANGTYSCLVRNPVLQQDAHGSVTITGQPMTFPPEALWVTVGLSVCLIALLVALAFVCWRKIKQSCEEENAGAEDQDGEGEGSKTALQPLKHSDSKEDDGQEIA
Briefly: Affinity determination by surface plasmon resonance (SPR) to 4Ig B7-H3. As to conditions: 4Ig B7-H3. A general note: In SPR one partner is held on a chip, and binding of the other changes the refractive index at the surface.

[1] abbreviates: SPR KD—25° C., 25° C. flow cell temperature.

As for `CC(=O)N[C@@H](CCC(C)C)C(=O)N[C@@H](Cc1ccc(O)cc1)C(=O)N[C@H]1CSSC[C@@H](C(=O)N[C@@H](Cc2c[nH]c3ccc(F)cc23)C(=O)N[C@@H](Cc2ccc(C(=O)O)cc2)C(=O)N[C@H](C(=O)N[C@H](CCCCNC(=O)CN2CCN(CC(=O)O)CCN(CC(=O)O)CCN(CC(=O)O)CC2)C(N)=O)[C@@H](C)O)NC(=O)[C@H](Cc2ccc(O)cc2)NC(=O)[C@H](C(C)C)NC(=O)[C@H](CC(=O)O)NC(=O)[C@H](Cc2ccc(O)cc2)NC(=O)[C@H](CCCCN)NC(=O)CNC(=O)[C@H](C(C)C)NC1=O` [compound 166, Ac-hLeu-Y-C-V-G-K-Y-D-V-Y-C-5FW-4COOHPhe-Thr-dLys(DOTA)-CONH2] (Ac-[hLeu]YCVGKYDVYC[Trp(5-F)][Phe(4-COOH)]T[dK](DOTA)-NH2; disulfide 3-11), under setting [1], the dissociation constant Kd (in general, the constant that tells how readily two partners part at equilibrium) fell in the range of 0.01 to 0.1 µM. For the compound `CCCC[C@H](NC(C)=O)C(=O)N[C@@H](Cc1ccc(O)cc1)C(=O)N[C@H]1CSSC[C@@H](C(=O)N[C@@H](Cc2c[nH]c3ccccc23)C(=O)N[C@@H](Cc2ccccc2)C(N)=O)NC(=O)[C@H](Cc2ccc(O)cc2)NC(=O)[C@H](C(C)C)NC(=O)[C@H](CC(=O)O)NC(=O)[C@H](Cc2ccc(O)cc2)NC(=O)[C@H](CCCCN)NC(=O)CN(C)C(=O)[C@H](C(C)C)NC1=O` [compound 26, Ac-Nle-Y-C-V-Sar-K-Y-D-V-Y-C-W-F-CONH2] (Ac-[Nle]YCV[Sar]KYDVYCWF-NH2; disulfide 3-11), the dissociation constant Kd lay within 0.01 to 0.1 µM under setting [1] and 0.01 to 0.1 µM (SPR KD—37° C., 37° C. flow cell temperature).

On to `CC(=O)N[C@@H](CCC(C)C)C(=O)N[C@@H](Cc1ccc(O)cc1)C(=O)N[C@H]1CSSC[C@@H](C(=O)N[C@@H](Cc2c[nH]c3ccc(F)cc23)C(=O)N[C@@H](Cc2ccccc2)C(=O)N(C)[C@@H](CO)C(=O)N[C@H](CCCCNC(=O)CN2CCN(CC(=O)O)CCN(CC(=O)O)CCN(CC(=O)O)CC2)C(N)=O)NC(=O)[C@H](Cc2ccc(O)cc2)NC(=O)[C@H](C(C)C)NC(=O)[C@H](CC(=O)O)NC(=O)[C@H](CC2CCCCC2)NC(=O)[C@H](CC2CCNCC2)NC(=O)CNC(=O)[C@H](C(C)C)NC1=O` [compound 236, Ac-hLeu-Y-C-V-G-PipAla-CHA-D-V-Y-C-5FW-F-NMeSer-dLys(DOTA)-CONH2] (Ac-[hLeu]YCVG[Ala(piperidin-4-yl)][Cha]DVYC[Trp(5-F)]F[NMeS][dK](DOTA)-NH2; disulfide 3-11), for which, under setting [1], the Kd is below 0.001 µM. Under setting [1], `CC(=O)N[C@@H](CCC(C)C)C(=O)N[C@@H](Cc1ccc(O)cc1)C(=O)N[C@H]1CSSC[C@@H](C(=O)N[C@@H](Cc2c[nH]c3ccc(F)cc23)C(=O)N[C@@H](Cc2ccccc2)C(=O)N2CCC[C@H]2C(=O)N[C@H](CCCCNC(=O)COCCOCCOCCOCCNC(=O)CN2CCN(CC(=O)O)CCN(CC(=O)O)CCN(CC(=O)O)CC2)C(=O)O)NC(=O)[C@H](Cc2ccc(O)cc2)NC(=O)[C@H](C(C)C)NC(=O)[C@H](CC(=O)O)NC(=O)[C@H](CC2CCOCC2)NC(=O)[C@H](CCCCN)NC(=O)CNC(=O)[C@H](C(C)(C)C)NC1=O` [compound 307, Ac-hLeu-Y-C-Tbg-G-K-ThpA-D-V-Y-C-5FW-F-Pro-dLys(PEG4-DOTA)-COOH] (Ac-[hLeu]YC[Tle]GK[Ala(4-THP)]DVYC[Trp(5-F)]FP[dK](X2)-OH; disulfide 3-11) returned a Kd of 0.001 to 0.01 µM. `CCCC[C@H](NC(C)=O)C(=O)N[C@@H](Cc1ccc(O)cc1)C(=O)N[C@H]1CSSC[C@@H](C(=O)N[C@@H](Cc2c[nH]c3ccccc23)C(=O)N[C@@H](Cc2ccccc2)C(=O)N[C@@H](CC2CCNCC2)C(=O)N[C@H](CCCCNC(=O)CN2CCN(CC(=O)O)CCN(CC(=O)O)CCN(CC(=O)O)CC2)C(N)=O)NC(=O)[C@H](Cc2ccc(O)cc2)NC(=O)[C@H](C(C)C)NC(=O)[C@H](CC(=O)O)NC(=O)[C@H](Cc2ccc(O)cc2)NC(=O)[C@H](CCCCN)NC(=O)CNC(=O)[C@H](C(C)C)NC1=O` [compound 89, Ac-Nle-Y-C-V-G-K-Y-D-V-Y-C-W-F-4PipAla-dLys(DOTA)-CONH2] (Ac-[Nle]YCVGKYDVYCWF[Ala(piperidin-4-yl)][dK](DOTA)-NH2; disulfide 3-11): the Kd under setting [1] lay in the range of 0.01 to 0.1 µM.
